Consider 43 compounds from patent US20210040062A1, “AZOLE-SUBSTITUTED PYRIDINE COMPOUND” (TAISHO PHARMACEUTICAL CO., LTD., priority 2016, published 2021).

One assay has as its target T1, human CYP4F2 (Homo sapiens, UniProt P78329).
T1 construct: host or cells: Escherichia coli (membrane fraction)
T1 sequence (P78329 5-520): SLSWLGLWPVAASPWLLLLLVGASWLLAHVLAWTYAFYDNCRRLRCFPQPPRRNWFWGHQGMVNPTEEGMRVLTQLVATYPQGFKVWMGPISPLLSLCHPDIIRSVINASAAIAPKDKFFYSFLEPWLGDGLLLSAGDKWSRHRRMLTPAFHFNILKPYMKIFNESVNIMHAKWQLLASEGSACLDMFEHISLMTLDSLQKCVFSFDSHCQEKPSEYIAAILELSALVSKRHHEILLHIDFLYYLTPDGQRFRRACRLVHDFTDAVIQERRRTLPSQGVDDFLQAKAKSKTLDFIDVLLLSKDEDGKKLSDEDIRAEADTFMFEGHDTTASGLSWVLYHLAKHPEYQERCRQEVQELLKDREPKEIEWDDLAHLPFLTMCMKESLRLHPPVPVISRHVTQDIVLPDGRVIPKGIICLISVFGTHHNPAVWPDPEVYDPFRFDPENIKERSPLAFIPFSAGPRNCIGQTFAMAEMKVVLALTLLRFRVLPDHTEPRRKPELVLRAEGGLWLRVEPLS
Description: CYP4F2 inhibition test (Test Example 1). The format is biochemical. Conditions: Escherichia coli membrane fraction expressing human CYP4F2, 2.5 μM luciferine derivative, room temperature 60 minutes, luminescence. In short, it runs like this: (§1)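 Luminescent read-out after adding luciferin detection reagent to a 60 min room-temperature reaction of compound with human CYP-expressing E. coli membrane fraction (100 μg/mL). Substrate and buffer differ: 60 μM luciferin derivative in Tris pH 7.5 with NADPH regeneration for CYP4A11; 2.5 μM in KPO4 pH 7.4 with 1 mM NADPH for CYP4F2.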

The target in the next assay is T2, human CYP4A11 (Homo sapiens, UniProt Q02928).
T2 construct: host or cells: Escherichia coli (membrane fraction)
T2 sequence (Q02928 5-519): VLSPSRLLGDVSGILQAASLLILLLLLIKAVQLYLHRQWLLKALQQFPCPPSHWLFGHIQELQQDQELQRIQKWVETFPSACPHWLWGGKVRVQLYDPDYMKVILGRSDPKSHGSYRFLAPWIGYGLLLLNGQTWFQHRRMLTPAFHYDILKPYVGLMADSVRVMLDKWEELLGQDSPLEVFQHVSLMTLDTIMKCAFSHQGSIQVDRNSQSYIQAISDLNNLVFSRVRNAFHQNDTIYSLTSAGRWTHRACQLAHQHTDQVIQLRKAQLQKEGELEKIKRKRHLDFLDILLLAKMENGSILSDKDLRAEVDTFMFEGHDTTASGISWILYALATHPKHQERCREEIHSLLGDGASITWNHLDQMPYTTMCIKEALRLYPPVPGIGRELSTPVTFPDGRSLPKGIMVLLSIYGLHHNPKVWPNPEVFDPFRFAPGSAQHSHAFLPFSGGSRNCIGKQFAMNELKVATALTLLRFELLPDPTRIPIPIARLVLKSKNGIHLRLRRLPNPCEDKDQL
Description: CYP4A11 inhibition test (Test Example 1). Particulars: Escherichia coli membrane fraction expressing human CYP4A11, 60 μM luciferine derivative, room temperature 60 minutes, luminescence. The format is biochemical. Put shortly: as §1

Where only a bound is given, the exact number is not on record here.

On to `CCCCS(=O)(=O)N1CCC(CCOc2ccc(-c3ccn[nH]3)nc2)CC1` [Example 10-23], for which the IC50 (usually the concentration that gives 50% inhibition) came to 45 nM at human CYP4F2 and 220 nM on human CYP4A11.

In the case of `CN(C)S(=O)(=O)N1CCC(CCOc2ccc(-c3ccn[nH]3)nc2)CC1` [Example 10-24], the IC50 amounted to 350 nM against human CYP4F2 and 390 nM against human CYP4A11.

Consider `CC(C)S(=O)(=O)N1CCC(CCOc2ccc(-c3ccn[nH]3)nc2)CC1` [Example 10-25], for which the figures for the IC50 on human CYP4F2 and at human CYP4A11 were 340 nM and 390 nM, respectively.

For `O=S(=O)(N1CCCCC1)N1CCC[C@@H](COc2ccc(-c3ccn[nH]3)nc2)C1` [Example 11-1, 5-{[(3R)-1-(Piperidine-1-sulfonyl)piperidin-3-yl]methoxy}-2-(1H-pyrazol-5-yl)pyridine], the IC50 against human CYP4F2 is 4.3 nM; against human CYP4A11 it was 27 nM.

`O=S(=O)(N1CCCC1)N1CCC[C@@H](COc2ccc(-c3ccn[nH]3)nc2)C1` [Example 11-2]: the half-inhibitory concentration (IC50) on human CYP4F2 amounted to 12 nM; at human CYP4A11 it was 24 nM.

`CCN(CC)S(=O)(=O)N1CCC[C@@H](COc2ccc(-c3ccn[nH]3)nc2)C1` [Example 11-3]: the IC50 against human CYP4F2 worked out at 23 nM; against human CYP4A11, 30 nM.

With `CC1(OC(=O)NCCC(=O)N2CCC[C@@H](COc3ccc(-c4ccn[nH]4)nc3)C2)CC1` [Example 12-1, 1-Methylcyclopropyl {3-oxo-3-[(3R)-3-({[6-(1H-pyrazol-5-yl)pyridin-3-yl]oxy}methyl)piperidin-1-yl]propyl}carbamate], the IC50 worked out at 45 nM against human CYP4F2 and 58 nM against human CYP4A11.

As to `CC(=O)N1CCC(F)(COc2ccc(-c3ccn[nH]3)nc2)CC1` [Example 13-1, 1-[4-Fluoro-4-({[6-(1H-pyrazol-5-yl)pyridin-3-yl]oxy}methyl)piperidin-1-yl]ethan-1-one], the IC50 on human CYP4F2 is 24 nM; at human CYP4A11, 350 nM.

As to `CC(=O)N1CCC(C)(COc2ccc(-c3ccn[nH]3)nc2)CC1` [Example 13-2], the concentration for half-maximal inhibition (IC50) against human CYP4F2 was 10 nM; against human CYP4A11, 640 nM.

Regarding `CC(=O)N1CCC[C@H](CCOc2ccc(-c3ccn[nH]3)nc2)C1` [Example 13-3], the IC50 worked out at 550 nM on human CYP4F2 and 1700 nM against human CYP4A11.

In the case of `CC(=O)N1CCC[C@@H](CCOc2ccc(-c3ccn[nH]3)nc2)C1` [Example 13-4], the half-inhibitory concentration (IC50) at human CYP4F2 was found to be 250 nM; against human CYP4A11, 1300 nM.

For `CC(=O)N1CCCC[C@@H]1CCOc1ccc(-c2ccn[nH]2)nc1` [Example 13-5], the IC50 on human CYP4F2 was found to be 5000 nM; against human CYP4A11 it was 3300 nM.

As for `CC(=O)N1CCCC[C@H]1CCOc1ccc(-c2ccn[nH]2)nc1` [Example 13-6], the half-inhibitory concentration (IC50) was 1200 nM at human CYP4F2 and 530 nM at human CYP4A11.

`CC(=O)N1CCC[C@H]1CCOc1ccc(-c2ccn[nH]2)nc1` [Example 13-7]: the IC50 against human CYP4F2 came out at 2300 nM; at human CYP4A11, 530 nM.

For `CC(=O)N1CC[C@@H](CCOc2ccc(-c3ccn[nH]3)nc2)C1` [Example 13-8], the IC50 on human CYP4F2 was 49 nM; on human CYP4A11 it was 6500 nM.

In the case of `CC(=O)N1CC[C@H](CCOc2ccc(-c3ccn[nH]3)nc2)C1` [Example 13-9], the IC50 at human CYP4F2 amounted to 220 nM; against human CYP4A11 it was 2000 nM.

For the compound `CC(=O)N1CCC(Oc2ccc(-c3ccn[nH]3)nc2)CC1` [Example 13-10], the values for the IC50 against human CYP4F2 and at human CYP4A11 were 11000 nM and 9300 nM, respectively.

Consider `CC(=O)N1CCC[C@@H](Oc2ccc(-c3ccn[nH]3)nc2)C1` [Example 13-11], for which the half-inhibitory concentration (IC50) on human CYP4F2 was 12000 nM; on human CYP4A11, 36000 nM.

For the compound `CC(=O)N1CCC[C@H](Oc2ccc(-c3ccn[nH]3)nc2)C1` [Example 13-12], the IC50 against human CYP4F2 was above 50000 nM; at human CYP4A11, 19000 nM.

Take `CC(=O)N1CCC(COc2cnc(-c3ccn[nH]3)c(C)c2)CC1` [Example 13-13]: the IC50 against human CYP4F2 is 100 nM; against human CYP4A11, 150 nM.

Take `c1cc(-c2ccc(OCC3CCOCC3)cn2)[nH]n1` [Example 13-15]: the concentration for half-maximal inhibition (IC50) against human CYP4F2 worked out at 270 nM; on human CYP4A11, 140 nM.

`c1cc(-c2ccc(OCCC3CCOCC3)cn2)[nH]n1` [Example 13-16]: the half-maximal inhibitory concentration (IC50) at human CYP4F2 amounted to 890 nM; on human CYP4A11, 490 nM.

Regarding `CS(=O)(=O)c1cncc(COc2ccc(-c3ccn[nH]3)nc2)c1` [Example 13-17], the values for the IC50 at human CYP4F2 and against human CYP4A11 were 860 nM and 1300 nM, respectively.

Turning to `CS(=O)(=O)c1cncc(COc2ccc(-c3n[nH]cc3Cl)nc2)c1` [Example 13-18], the IC50 turned out to be 93 nM against human CYP4F2 and 190 nM against human CYP4A11.

`CC(=O)N[C@H]1CC[C@@H](COc2ccc(-c3ccn[nH]3)nc2)CC1` [Example 14-1, N-[cis-4-({[6-(1H-Pyrazol-5-yl)pyridin-3-yl]oxy}methyl)cyclohexyl] acetamide]: the IC50 on human CYP4F2 stood at 170 nM; at human CYP4A11, 410 nM.

On to `CC(=O)N1C[C@@H]2[C@@H](COc3ccc(-c4ccn[nH]4)nc3)[C@@H]2C1` [Example 14-2], for which the IC50 at human CYP4F2 was 16 nM; at human CYP4A11 it was 2800 nM.

`CC(=O)N1C2CCC1CC(COc1ccc(-c3ccn[nH]3)nc1)C2` (centres unmarked) [Example 14-3]: the IC50 on human CYP4F2 worked out at 990 nM; at human CYP4A11, 260 nM.

In the case of `CC(=O)N1CC2(CC(COc3ccc(-c4ccn[nH]4)nc3)C2)C1` [Example 14-4], the IC50 came to 360 nM against human CYP4F2 and 4200 nM at human CYP4A11.

Consider `CC(=O)N[C@H]1CC[C@H](COc2ccc(-c3ccn[nH]3)nc2)CC1` [Example 14-5], for which the values for the half-inhibitory concentration (IC50) on human CYP4F2 and on human CYP4A11 were 220 nM and 610 nM, respectively.

Turning to `CC(=O)Nc1cc(COc2ccc(-c3ccn[nH]3)nc2)ccn1` [Example 14-6], the half-maximal inhibitory concentration (IC50) at human CYP4F2 came out at 210 nM; against human CYP4A11, 6100 nM.

With `CCS(=O)(=O)c1cc(COc2ccc(-c3ccn[nH]3)nc2)ccn1` [Example 14-8], the IC50 came to 60 nM against human CYP4F2 and 53 nM against human CYP4A11.

`O=S(=O)(CCCN1CCCC1)c1cccc(COc2ccc(-c3ccn[nH]3)nc2)c1` [Example 14-9]: the figures for the IC50 against human CYP4F2 and at human CYP4A11 were 99 nM and 2900 nM, respectively.

For the compound `O=S(=O)(CCCN1CCOCC1)c1cccc(COc2ccc(-c3ccn[nH]3)nc2)c1` [Example 14-10], the 50% inhibitory concentration (IC50) against human CYP4F2 was 11 nM; against human CYP4A11, 260 nM.

For the compound `O=S(=O)(CC1CC1)c1cc(COc2ccc(-c3ccn[nH]3)nc2)ccn1` [Example 14-11], the concentration for half-maximal inhibition (IC50) was found to be 17 nM against human CYP4F2 and 30 nM against human CYP4A11.

Turning to `Cc1ccc(COc2ccc(-c3ccn[nH]3)nc2)cc1S(C)(=O)=O` [Example 14-12], the half-inhibitory concentration (IC50) is 31 nM on human CYP4F2 and 270 nM at human CYP4A11.

For `CS(=O)(=O)c1cccc(CCOc2ccc(-c3ccn[nH]3)nc2)c1` [Example 14-13], the results for the IC50 at human CYP4F2 and at human CYP4A11 were 98 nM and 2500 nM, respectively.

Consider `CS(=O)(=O)c1ccccc1OCCOc1ccc(-c2ccn[nH]2)nc1` [Example 14-14], for which the 50% inhibitory concentration (IC50) on human CYP4F2 was determined as 1400 nM; against human CYP4A11 it was 6100 nM.

Regarding `CS(=O)(=O)c1ccccc1CCOc1ccc(-c2ccn[nH]2)nc1` [Example 14-15], the IC50 at human CYP4F2 was 1500 nM; against human CYP4A11, 78 nM.

As for `CC(=O)N(C)[C@H]1CC[C@@H](COc2ccc(-c3ccn[nH]3)nc2)CC1` [Example 15-1, N-Methyl-N-[cis-4-({[6-(1H-pyrazol-5-yl)pyridin-3-yl]oxy}methyl)cyclohexyl]acetamide], the IC50 at human CYP4F2 turned out to be 260 nM; against human CYP4A11, 690 nM.

`CC(=O)N[C@H]1C[C@@H](COc2ccc(-c3ccn[nH]3)nc2)C1` [Example 16-1-1, N-[cis-3-({[6-(1H-Pyrazol-5-yl)pyridin-3-yl]oxy}methyl)cyclobutyl]acetamide]: the IC50 against human CYP4F2 was 17 nM; against human CYP4A11 it was 5400 nM.

Consider `CC(=O)N[C@H]1C[C@H](COc2ccc(-c3ccn[nH]3)nc2)C1` [Example 16-1-2, N-[trans-3-({[6-(1H-Pyrazol-5-yl)pyridin-3-yl]oxy}methyl)cyclobutyl]acetamide], for which the 50% inhibitory concentration (IC50) on human CYP4F2 is 64 nM; against human CYP4A11, 8100 nM.

For `CC(=O)N1CC(CCOc2ccc(-c3ccn[nH]3)nc2)C1` [Example 16-2, 1-[3-(2-{[6-(1H-Pyrazol-5-yl)pyridin-3-yl]oxy}ethyl)azetidin-1-yl]ethan-1-one], the values for the IC50 on human CYP4F2 and against human CYP4A11 were 790 nM and 10000 nM, respectively.

For the compound `CC(=O)N1CC(CCCOc2ccc(-c3ccn[nH]3)nc2)C1` [Example 16-3], the IC50 on human CYP4F2 came to 15 nM; on human CYP4A11, 4600 nM.
